# Entries after “also recorded” stand apart in the source; their conditions may differ. Where two headings read alike, the source gives them in different places.
# What was measured:
# [1] = test system: patients with relapsed or refractory advanced solid tumors; assay: 3 + 3 dose escalation: DLT, MTD, RP2D; type: in vivo; details: for MTD: 28-day cycles; for recommended phase 2 dose (RP2D): human, in vivo
# Text: Prior to the initiation of QW dose escalation, the initial cycle length of 22 days was changed to 28 days by protocol amendment to improve clinical feasibility and better facilitate future combination studies. Patients enrolled prior to this protocol amendment in an ongoing Q2D dose escalation cohort continued on the 22-day cycle schedule until the cohort was full and all patients had been evaluated for dose-limiting toxicity (DLT). For both Q2D and QW regimens, dose escalation progressed according to the incidence of DLT in the first treatment cycle (either 22 days or 28 days). […] The MTD was defined as the highest dose level that generated DLT in 0/3 or 1/6 patients. On a case-by-case basis, the sponsor in collaboration with the principal investigators determined if intrapatient dose escalation was appropriate. Patients who had any dose reductions were not permitted to dose escalate.
# The starting dose for the Q2D dose escalation phase was 20 mg, which was equivalent to one-tenth of the highest non-severely toxic dose (HNSTD) established in monkey toxicology studies. Dose escalation included planned dose levels of 40 mg, 80 mg, 135 mg, 200 mg, and 280 mg. […] In addition, a seventh Q2D cohort was to enroll sufficient patients (approximately 16) with any advanced solid tumor (excluding lymphoma) to ensure that 12 patients completed protocol-specified dosing and PK assessments scheduled during cycle 1.
# The study was initially designed to investigate a Q2D schedule. Subsequently, a protocol amendment introduced planned QW dose escalation cohorts. The alteration in the dosing regimen from Q2D to QW was expected to reduce drug accumulation and increase Cmax while maintaining similar steady-state AUC. In addition, it was hypothesized that the increased Cmax might lead to a higher degree of pathway inhibition for a window of time within the dosing interval, without compromising overall dose density. Planned QW doses to be administered on days 1, 8, 15, and 22 of a 28-day cycle were a starting dose of 400 mg, followed by dose level increases of 200 mg (i.e., doses of 600 mg, 800 mg, and 1000 mg) in each subsequent cohort until the MTD/RP2D was reached.
# [2] = plasma pharmacokinetics (LC–MS/MS, noncompartmental analysis); type: in vivo, human; details: for Tmax / AUC / Cmax / half-life: human, plasma; for Cmax: read-out: Cmax, geometric mean (%CV); for half-life: read-out: t1/2z, mean (range) (converted)
# Procedure: In addition, for patients on Q2D schedules, predose or trough samples were collected on days 9 and 15 (Q2D dosing) or days 8 and 15 (QW dosing) to evaluate time to steady state. […] Plasma concentration–time analysis was performed using noncompartmental analysis. The plasma PK parameters were estimated using a validated version of Phoenix WinNonlin software (Version 6.3 or above, Pharsight Corporation, Raleigh, NC). Terminal half-life was calculated based on the equation: t1/2 = ln2/kel (kel = elimination rate constant determined by linear regression analysis of selected time points in the apparent terminal phase of the log plasma concentration versus time curve).
# pERK = pERK expression in paired tumor biopsies (H-score, image analysis); type: in vivo, human; details: for median percentage decrease in pERK staining, day 21 vs baseline: Q2D expansion; for median percentage decrease in pERK expression, day 21 vs baseline: QW melanoma expansion cohort
# Procedure: Based on tissue availability, pharmacodynamic assays included assessment of pERK expression levels in paired biopsy samples (baseline and day 21) from patients in the melanoma dose expansion cohorts. The level of staining was assessed both by a pathologist (semi-quantitative measurements according to H-score assessment) and by quantitated image analysis (Aperio, Leica Biosystems Nussloch, Germany).
# BRAF V600E mutant = test system: BRAF V600E mutant; design: method as in doi:10.1016/S1359-6349(10)71810-3; details: preclinical studies; cited from earlier work
# [3] = test system: BRAF-mutant, BRAF deletion mutation and NRAS-mutant xenograft tumor models; design: method as in doi:10.1016/S1359-6349(10)71810-3; details: cited from earlier work
# [4] = test system: BRAF V600 mutant melanoma xenografts; design: method as in doi:10.1016/S1359-6349(10)71810-3; details: mice; tumors remaining sensitive to a second dosing cycle; cited from earlier work
# [5] = design: method as in PMID 28082416; details: healthy brain and intracranial tumors (pediatric low-grade astrocytoma cells, KIAA1549-BRAF fusion); cited from earlier work
# BRAF = test system: BRAF; design: method as in PMID 28082416; details: cited from earlier work
# [6] = test system: relapsed or refractory advanced solid tumors, melanoma; design: method as in ref 25 = [25]; 25. Medina T Barry E Govinda Raju S Blackman S Gonzalez R Prolonged complete response to the pan-RAF inhibitor DAY101 in a patient with an NRAS -mutated acral lentiginous melanoma Pigment Cell Melanom; details: one patient, NRAS-mutated melanoma, cited from earlier work
# [7] = test system: recurrent/progressive low-grade gliomas harboring MAPK pathway alterations; details: cited from earlier work
# [8] = po, 400 mg, 400 mg QW oral, cycle 1 day 22, plasma, n 3
# [9] = po, 600 mg, 600 mg QW oral, cycle 1 day 22, plasma, n 20
# [10] = po, 800 mg, 800 mg QW oral, cycle 1 day 22, plasma, n 3
# [11] = dose-escalation part, QW monotherapy, 8 patients with tumor RAF gene fusions
smiles,measurement,setting,value
C[C@@H](NC(=O)c1ncnc(N)c1Cl)c1ncc(C(=O)Nc2cc(C(F)(F)F)c(Cl)cn2)s1 [tovorafenib],MTD,[1]; Q2D,200 mg
same,MTD,[1]; QW,600 mg
same,recommended phase 2 dose (RP2D),[1],200 mg
same,recommended phase 2 dose (RP2D),[1]; 28 days,600 mg
same,dose dependence of steady-state AUC48,[2]; 20 mg to 280 mg Q2D,approximately dose-proportional
same,dose dependence of steady-state exposure (AUC168),[2]; 400 mg to 800 mg QW,approximately dose-proportional
same,"power model coefficient, dose versus steady-state AUC168","[2]; 400 mg to 800 mg QW, cycle 1 day 22, 95% CI 0.55–2.04",1.30
same,geometric mean Rauc,[2]; Q2D dosing regimen at 200 mg,~ 2.55
same,Tmax,"[2]; oral, post-dose, Q2D and QW, read-out: overall median Tmax",2 to 4 h
same,AUC,"[2]; po, 20 mg, 20 mg Q2D oral, cycle 1 day 21, plasma, n 3, read-out: AUC48, geometric mean (%CV)",10.4 µg·h/mL
same,Cmax,"[2]; po, 20 mg, 20 mg Q2D oral, cycle 1 day 21, plasma, n 3",302 ng/mL
same,Tmax,"[2]; po, 20 mg, 20 mg Q2D oral, cycle 1 day 21, plasma, n 3, read-out: tmax, median (min, max)",2 h
same,AUC,"[2]; po, 40 mg, 40 mg Q2D oral, cycle 1 day 21, plasma, n 2, read-out: AUC48, geometric mean (%CV)",20.9 µg·h/mL
same,Cmax,"[2]; po, 40 mg, 40 mg Q2D oral, cycle 1 day 21, plasma, n 2",760 ng/mL
same,Tmax,"[2]; po, 40 mg, 40 mg Q2D oral, cycle 1 day 21, plasma, n 2, read-out: tmax, median (min, max)",3 h
same,AUC,"[2]; po, 80 mg, 80 mg Q2D oral, cycle 1 day 21, plasma, n 3, read-out: AUC48, geometric mean (%CV)",42.7 µg·h/mL
same,Cmax,"[2]; po, 80 mg, 80 mg Q2D oral, cycle 1 day 21, plasma, n 3",2040 ng/mL
same,Tmax,"[2]; po, 80 mg, 80 mg Q2D oral, cycle 1 day 21, plasma, n 3, read-out: tmax, median (min, max)",4 h
same,AUC,"[2]; po, 135 mg, 135 mg Q2D oral, cycle 1 day 21, plasma, n 3, read-out: AUC48, geometric mean (%CV)",96.8 µg·h/mL
same,Cmax,"[2]; po, 135 mg, 135 mg Q2D oral, cycle 1 day 21, plasma, n 3",3320 ng/mL
same,Tmax,"[2]; po, 135 mg, 135 mg Q2D oral, cycle 1 day 21, plasma, n 3, read-out: tmax, median (min, max)",2 h
same,AUC,"[2]; po, 200 mg, 200 mg (n=7) Q2D oral, cycle 1 day 21, plasma, n 6, read-out: AUC48, geometric mean (%CV)",118 µg·h/mL
same,Cmax,"[2]; po, 200 mg, 200 mg (n=7) Q2D oral, cycle 1 day 21, plasma, n 6",3810 ng/mL
same,Tmax,"[2]; po, 200 mg, 200 mg (n=7) Q2D oral, cycle 1 day 21, plasma, n 6, read-out: tmax, median (min, max)",3 h
same,AUC,"[2]; po, 200 mg, 200 mg (n=23; PK expansion cohort and 28-day cycle cohort) Q2D oral, cycle 1 day 21, plasma, n 14, read-out: AUC48, geometric mean (%CV)",127 µg·h/mL
same,Cmax,"[2]; po, 200 mg, 200 mg (n=23; PK expansion cohort and 28-day cycle cohort) Q2D oral, cycle 1 day 21, plasma, n 14",3680 ng/mL
same,Tmax,"[2]; po, 200 mg, 200 mg (n=23; PK expansion cohort and 28-day cycle cohort) Q2D oral, cycle 1 day 21, plasma, n 14, read-out: tmax, median (min, max)",2 h
same,AUC,"[2]; po, 280 mg, 280 mg Q2D oral, cycle 1 day 21, plasma, n 4, read-out: AUC48, geometric mean (%CV)",155 µg·h/mL
same,Cmax,"[2]; po, 280 mg, 280 mg Q2D oral, cycle 1 day 21, plasma, n 4",4060 ng/mL
same,Tmax,"[2]; po, 280 mg, 280 mg Q2D oral, cycle 1 day 21, plasma, n 4, read-out: tmax, median (min, max)",3 h
same,AUC,"[2]; po, 400 mg, 400 mg QW oral, cycle 1 day 22, plasma, n 3, read-out: AUC168, geometric mean (%CV)",193 µg·h/mL
same,Cmax,[2]; [8],3140 ng/mL
same,Tmax,"[2]; po, 400 mg, 400 mg QW oral, cycle 1 day 22, plasma, n 3, read-out: Tmax, median (min, max)",3 h
same,half-life,[2]; [8],52 h
same,AUC,"[2]; po, 600 mg, 600 mg QW oral, cycle 1 day 22, plasma, n 20, read-out: AUC168, geometric mean (%CV)",330 µg·h/mL
same,Cmax,[2]; [9],5650 ng/mL
same,Tmax,"[2]; po, 600 mg, 600 mg QW oral, cycle 1 day 22, plasma, n 20, read-out: Tmax, median (min, max)",3 h
same,half-life,[2]; [9],~70 h
same,AUC,"[2]; po, 800 mg, 800 mg QW oral, cycle 1 day 22, plasma, n 3, read-out: AUC168, geometric mean (%CV)",473 µg·h/mL
same,Cmax,[2]; [10],6460 ng/mL
same,Tmax,"[2]; po, 800 mg, 800 mg QW oral, cycle 1 day 22, plasma, n 3, read-out: Tmax, median (min, max)",4 h
same,half-life,[2]; [10],68.1 h
same,accumulation in systemic circulation (day 22 AUC168 over day 1 AUC168),"[2]; repeated QW dosing, 400–800 mg",minimal accumulation; also recorded: Minimal to no apparent accumulation
same,"median percentage decrease in pERK staining, day 21 vs baseline","pERK; H-score by a pathologist, BRAF mutation-positive previously treated cohort",≥ 70%
same,"median percentage decrease in pERK staining, day 21 vs baseline","pERK; H-score by a pathologist, BRAF mutation-positive treatment-naïve cohort",≥ 70%
same,"median percentage decrease in pERK staining, day 21 vs baseline","pERK; H-score by a pathologist, NRAS mutation-positive treatment-naïve cohort",≥ 70%
same,"median percentage decrease in pERK expression, day 21 vs baseline",pERK; H-score by a pathologist,12%
same,"median percentage decrease in pERK staining, day 21 vs baseline","pERK; quantitated image analysis, BRAF mutation-positive previously treated cohort",≥ 70%
same,"median percentage decrease in pERK staining, day 21 vs baseline","pERK; quantitated image analysis, NRAS mutation-positive treatment-naïve cohort",≥ 70%
same,"median percentage decrease in pERK expression, day 21 vs baseline",pERK; quantitated image analysis,8%
same,IC50,BRAF V600E mutant,7.1 nM
same,p-ERK suppression,[3],strong and sustained p-ERK suppression
same,"effect on large, established xenograft tumors",[4],caused tumor regression
same,blood–brain barrier penetration,[5],good blood–brain barrier penetration
same,affinity for monomeric versus dimeric forms of BRAF,BRAF,equal affinity
same,treatment time until complete response was reported,[6]; single patient IND after the study,7 months
same,duration for which complete response has been sustained,"[6]; single patient IND, continued treatment",8 years
same,complete responses,[7]; [11],2 patients
same,partial responses,[7]; [11],3 patients
same,prolonged stable disease,[7]; [11],two
same,patients with clinically meaningful activity,"[7]; phase 1b part, 24 of 35 patients with MAPK pathway-altered cancers",69%
same,complete responses,"[7]; phase 1b part, 35 patients",2
same,partial responses,"[7]; phase 1b part, 35 patients",7
same,stable diseases,"[7]; phase 1b part, 35 patients",15

# From publication PMC10261210 (Cancer Chemotherapy and Pharmacology, 2023)
